Data: patent US11629201B2, “PSMA-binding agents and uses thereof” (ITM Isotope Technologies Munich SE, priority 2017, dated 2023)

Key:
[1] = n-Octanol/PBS distribution coefficient (log D); assay type: physicochemical; settings: n-octanol/PBS; radiolabeled ligand, 50 MBq/nmol, PBS pH 7.4
Protocol: The radioligand (0.5 MBq; 10 pmol, 25 μL) was then added to a reagent tube containing 1475 μL of PBS pH 7.4 and 1500 μL of n-octanol. The vials were vortexed vigorously followed by a centrifugation step for phase separation.
Determination of n-Octanol/PBS Distribution Coefficients (Log D Values). The distribution coefficients (log D values) of the ^64Cu-labeled radioligands (50 MBq/nmol) were determined by a shake-flask method using liquid-liquid extraction followed by phase separation as previously reported. Three experiments were performed with five replicates for each radioligand. Statistical significance of the data (p<0.05) was evaluated using an unpaired t-test (GraphPad Prism software, version 7).
Determination of n-Octanol/PBS Distribution Coefficients (Log D Values). […] A sample of the radioligands was mixed with phosphate-buffered saline (PBS) and n-octanol followed by vigorous vortexing. […] Three experiments were performed with five replicates for each compound.

[2] = system: PC-3 PIP/flu tumor-bearing mice; assay: Biodistribution studies in PC-3 PIP/flu tumor-bearing mice; settings: for Tumor-to-blood / Tumor-to-kidney / Tumor-to-liver: PC-3 PIP tumor
[3] = system: PSMA-positive PC-3 PIP cells; assay: Cell uptake and internalization in PSMA-positive PC-3 PIP cells; assay type: cell-based; settings: 2 h and 4 h time-point, PC-3 PIP cells
PC-3 PIP tumor = assay: Therapy study in PC-3 PIP tumor-bearing mice; assay type: in vivo
Source text: Mice of Groups B and D received 2 MBq of the radioligand (1 nmol/mouse), whereas mice of Groups C and E received 5 MBq of the radioligand (1 nmol/mouse). The mice were monitored by measuring body weights and the tumor size every other day over 12 weeks. Mice were euthanized when pre-defined endpoint criteria were reached, or when the study was terminated at Day 84. The relative body weight (RBW) was defined as [BWx/BW0], where BWx is the body weight in gram at a given day x and BW0 the body weight in gram at day 0. The tumor dimension was determined by measuring the longest tumor axis (L) and its perpendicular axis (W) with a digital caliper. The tumor volume (V) was calculated according to the equation [V=0.5*(L*W2)]. The relative tumor volume (RTV) was defined as [TVx/TV0], where TVx is the tumor volume in mm3 at a given day x and TV0 the tumor volume in mm3 at Day 0.
The efficacy of the radionuclide therapy was expressed as the tumor growth delay (TGDx), which was calculated as the time required for the tumor volume to increase x-fold over the initial volume at the Day 0. The tumor growth delay index [TGDIx=TGDx(T)/TGDx(C)] was calculated as the TGDx ratio of treated mice (T) over control mice (C) for a 2-fold (x=2, TGD2) and 5-fold (x=5, TGD5) increase of the initial tumor volume. As a measure to identify undesired side effects, body weights were compared at the day when the first control mouse had to be euthanized. After euthanasia, kidneys, liver and the brain were collected and weighed. The organ ratios (kidney-to-brain and liver-to-brain) were calculated using the organ masses obtained at the day of euthanasia.
The data was analyzed for significance as indicated in the result part using a one-way ANOVA with Tukey's multiple comparison post-test using GraphPad Prism software (version 7). A value of p<0.05 was considered statistically significant. Survival analysis was performed with Kaplan-Meier curves and a log-rank tests (Mantel Cox).

[4] = 2 MBq/mouse (Groups B, D), control = 1

## Cc1ccc(CCCC(=O)NCCCCC(NC(=O)CN2CCN(CC(=O)O)CCN(CC(=O)O)CCN(CC(=O)O)CC2)C(=O)NCC2CCC(C(=O)NC(Cc3ccc4ccccc4c3)C(=O)NCCCCC(NC(=O)NC(CCC(=O)O)C(=O)O)C(=O)O)CC2)cc1 (stereo not drawn) [^64Cu-PSMA-ALB-06, metal not drawn]
[1]
  logD: -3.1 ± 0.1

## Cc1ccc(CCCC(=O)NC(CC(=O)NC(CC(=O)NC(CC(=O)NC(CCCCNC(=O)CN2CCN(CC(=O)O)CCN(CC(=O)O)CCN(CC(=O)O)CC2)C(=O)NCC2CCC(C(=O)NC(Cc3ccc4ccccc4c3)C(=O)NCCCCC(NC(=O)NC(CCC(=O)O)C(=O)O)C(=O)O)CC2)C(=O)O)C(=O)O)C(=O)O)cc1 (stereo not drawn) [^177Lu-PSMA-ALB-08, metal not drawn]
[2]; 4 h p.i.
  Blood: 0.41 ± 0.18 % IA/g
  Bone: 0.16 ± 0.03 % IA/g
  Heart: 0.19 ± 0.07 % IA/g
  Intestines: 0.20 ± 0.09 % IA/g
  Kidneys: 27.2 ± 5.93 % IA/g
  Liver: 0.27 ± 0.10 % IA/g
  Lung: 0.48 ± 0.21 % IA/g
  Muscle: 0.06 ± 0.03 % IA/g
  PC-3 PIP Tumor: 46.9 ± 16.7 % IA/g
  PC-3 flu Tumor: 0.25 ± 0.19 % IA/g
  Salivary glands: 0.19 ± 0.06 % IA/g
  Spleen: 0.53 ± 0.10 % IA/g
  Stomach: 0.40 ± 0.25 % IA/g
  Tumor-to-blood: 116 ± 9.46
  Tumor-to-kidney: 1.70 ± 0.22
  Tumor-to-liver: 177 ± 2.72
[2]; 24 h p.i.
  Blood: 0.08 ± 0.01 % IA/g
  Bone: 0.07 ± 0.02 % IA/g
  Heart: 0.04 ± 0.01 % IA/g
  Intestines: 0.03 ± 0.01 % IA/g
  Kidneys: 13.9 ± 2.32 % IA/g
  Liver: 0.11 ± 0.02 % IA/g
  Lung: 0.09 ± 0.02 % IA/g
  Muscle: 0.02 ± 0.01 % IA/g
  PC-3 PIP Tumor: 33.0 ± 5.04 % IA/g
  PC-3 flu Tumor: 0.09 ± 0.05 % IA/g
  Salivary glands: 0.07 ± 0.05 % IA/g
  Spleen: 0.10 ± 0.03 % IA/g
  Stomach: 0.03 ± 0.01 % IA/g
  Tumor-to-blood: 421 ± 45.7
  Tumor-to-kidney: 2.39 ± 0.24
  Tumor-to-liver: 295 ± 40.1
[2]; 72 h p.i.
  Blood: 0.06 ± 0.02 % IA/g
  Bone: 0.09 ± 0.05 % IA/g
  Heart: 0.03 ± 0.01 % IA/g
  Intestines: 0.02 ± 0.01 % IA/g
  Kidneys: 7.98 ± 0.62 % IA/g
  Liver: 0.12 ± 0.01 % IA/g
  Lung: 1.28 ± 2.02 % IA/g
  Muscle: 0.01 ± 0.01 % IA/g
  PC-3 PIP Tumor: 24.1 ± 5.37 % IA/g
  PC-3 flu Tumor: 0.09 ± 0.07 % IA/g
  Salivary glands: 0.03 ± 0.02 % IA/g
  Spleen: 0.11 ± 0.05 % IA/g
  Stomach: 0.02 ± 0.01 % IA/g
  Tumor-to-blood: 416 ± 89.5
  Tumor-to-kidney: 3.02 ± 0.68
  Tumor-to-liver: 207 ± 47.1
[3]
  internalized fraction / internalization rate versus reference: still comparable to ^177Lu-PSMA-617

## O=C(O)CCC(NC(=O)NC(CCCCNC(=O)C(Cc1ccc2ccccc2c1)NC(=O)C1CCC(CNC(=O)C(CCCCNC(=O)CN2CCN(CC(=O)O)CCN(CC(=O)O)CCN(CC(=O)O)CC2)NC(=O)CC(NC(=O)CC(NC(=O)CC(NC(=O)CCCc2ccc(I)cc2)C(=O)O)C(=O)O)C(=O)O)CC1)C(=O)O)C(=O)O (stereo not drawn) [PSMA-ALB-07]
[1]
  logD: -3.9 ± 0.25

## Cc1ccc(CCCC(=O)NCCCCC(NC(=O)CN2CCN(CC(=O)O)CCN(CC(=O)O)CCN(CC(=O)O)CC2)C(=O)NCC2CCC(C(=O)NC(Cc3ccc4ccccc4c3)C(=O)NCCCCC(NC(=O)NC(CCC(=O)O)C(=O)O)C(=O)O)CC2)cc1 (stereo not drawn) [^177Lu-PSMA-ALB-06, metal not drawn]
[2]; 4 h p.i.
  Blood: 16.2 ± 1.40 % IA/g
  Bone: 2.23 ± 0.08 % IA/g
  Intestines: 2.64 ± 0.27 % IA/g
  Lung: 9.40 ± 1.55 % IA/g
  Muscle: 1.60 ± 0.38 % IA/g
  PC-3 PIP Tumor: 76.08 ± 7.67 % IA/g
  Tumor-to-blood: 4.72 ± 0.51
  Tumor-to-kidney: 4.02 ± 0.25
  Tumor-to-liver: 24.29 ± 8.27
[2]; 24 h p.i.
  Blood: 1.49 ± 0.50 % IA/g
  Bone: 0.41 ± 0.15 % IA/g
  Heart: 0.68 ± 0.18 % IA/g
  Intestines: 0.30 ± 0.06 % IA/g
  Lung: 2.48 ± 2.68 % IA/g
  Muscle: 0.21 ± 0.04 % IA/g
  PC-3 PIP Tumor: 108 ± 11.6 % IA/g
  PC-3 flu Tumor: 0.79 ± 0.23 % IA/g
  Spleen: 0.76 ± 0.18 % IA/g
  Stomach: 0.28 ± 0.07 % IA/g
  Tumor-to-blood: 77.6 ± 21.8
  Tumor-to-kidney: 10.4 ± 1.16
  Tumor-to-liver: 222 ± 49.5
[2]; 72 h p.i.
  Blood: 0.62 ± 0.06 % IA/g
  Bone: 0.18 ± 0.01 % IA/g
  Heart: 0.26 ± 0.02 % IA/g
  Intestines: 0.15 ± 0.00 % IA/g
  Kidneys: 5.58 ± 0.62 % IA/g
  Liver: 0.28 ± 0.02 % IA/g
  Lung: 0.67 ± 0.05 % IA/g
  PC-3 PIP Tumor: 77.9 ± 7.52 % IA/g
  PC-3 flu Tumor: 0.43 ± 0.03 % IA/g
  Salivary glands: 0.24 ± 0.03 % IA/g
  Stomach: 0.13 ± 0.02 % IA/g
  Tumor-to-blood: 127 ± 24.9
  Tumor-to-kidney: 14.1 ± 2.02
  Tumor-to-liver: 277 ± 19.3
PC-3 PIP tumor; 2 MBq/mouse (Groups B, D)
  first mouse of group euthanized: 28 days
  median survival: 36 days
PC-3 PIP tumor; [4]
  TGDI2: 1.8 ± 0.5
  TGDI5: 2.3 ± 0.6
PC-3 PIP tumor; 5 MBq/mouse (Group E)
  tumor growth: the tumor growth was effectively inhibited
PC-3 PIP tumor; 5 MBq/mouse (Group E), n=6
  mice in which tumors disappeared entirely, no regrowth until Day 84: four
  mice still alive at the end of the study at Day 84: four
PC-3 PIP tumor; 5 MBq/mouse (Groups C, E)
  first mouse of group euthanized: 58 days
[3]
  internalized fraction / internalization rate versus reference: still comparable to ^177Lu-PSMA-617

## O=C(O)CCC(NC(=O)NC(CCCCNC(=O)C(Cc1ccc2ccccc2c1)NC(=O)C1CCC(CNC(=O)C(CCCCNC(=O)CN2CCN(CC(=O)O)CCN(CC(=O)O)CCN(CC(=O)O)CC2)NC(=O)CC(NC(=O)CC(NC(=O)CCCc2ccc(I)cc2)C(=O)O)C(=O)O)CC1)C(=O)O)C(=O)O (stereo not drawn) [PSMA-ALB-05]
[1]
  logD: -3.5 ± 0.08

## O=C(O)CC[C@H](NC(=O)N[C@@H](CCCCNC(=O)[C@H](Cc1ccc2ccccc2c1)NC(=O)[C@H]1CC[C@H](CNC(=O)CN2CCN(CC(=O)O)CCN(CC(=O)O)CCN(CC(=O)O)CC2)CC1)C(=O)O)C(=O)O [PSMA-617, reference compound]
[1]
  logD: -4.4 ± 0.15

## O=C(O)CC[C@H](NC(=O)N[C@@H](CCCCNC(=O)[C@H](Cc1ccc2ccccc2c1)NC(=O)[C@H]1CC[C@H](CNC(=O)[C@@H](CCCCNC(=O)CN2CCN(CC(=O)O)CCN(CC(=O)O)CCN(CC(=O)O)CC2)NC(=O)CCCc2ccc(I)cc2)CC1)C(=O)O)C(=O)O [PSMA-ALB-02]
[1]
  logD: -2.8 ± 0.09
